Assay results: US20190225650A1, “PEPTIDOMIMETIC MACROCYCLES AND USE THEREOF IN REGULATING HIF1ALPHA” (AILERON THERAPEUTICS, INC., priority 2013, published 2019)
Bridge positions count the residues as written; N and C are the ends. Square brackets hold non-standard residues; d marks the D form. Peptide text beside a SMILES is read from it. R8 = C=CCCCCCC[C@@](C)(N)C(=O)O; S5 = C=CCCC[C@](C)(N)C(=O)O; Nle = CCCC[C@H](N)C(=O)O

Columns and labels:
[1] = target: T1, flag-tagged HIF1α (AA 786-826) / His6-tagged p300 (AA 323-423) complex (Homo sapiens, UniProt Q09472); assay: HIF1α p300 displacement assay (TR FRET, +CHAPS); format: binding; settings: read-out: IC50 (nM) (HIF1α_p300 Displacement + CHAPS)
T1 construct: His6-tagged p300 (AA 323-423); made in house; host or cells: E. coli (pETDuet vector)
In short: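 In this TR-FRET displacement format, peptides compete HIF1α C-terminal transactivation domain off p300-CH. They were preincubated 1 h at room temperature with 300 nM complex in HEPES pH 7.4/NaCl buffer with 7.5 mM CHAPS and 1 mM DTT. Anti-His-D2 (4 nM) and anti-Flag-K (0.5 μM) followed for 2 h, and a one-site fit of the fluorescence ratio gave IC50.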

HRE-bla ME-180 cells [2] = assay: Reporter gene assay (HRE-bla ME-180 HIF reporter, GeneBLAzer); format: cell-based, human; settings: for EC50: 24 hour normoxia
In short: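 A FRET β-lactamase readout of HIF transcription was used. After compound treatment in 0.3% DMSO/media under normoxic conditions, 20 μl of 6× LiveBLAzer-FRET B/G (CCF4-AM) substrate was added. Plates sat 3 hr at room temperature in the dark and were read at 409 Ex/460Em and 409Ex/530Em on a Synergy 2. Inhibition was compared against DMSO vehicle controls, with chetomin as positive control.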

HRE-bla ME-180 cells [3] = assay: Cell proliferation assay (viability, MTT, 1% FBS); format: cell-based, human
In short: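 Viable cell number was measured with the CellTiter 96 (MTT) kit after compounds were applied for a 16 h normoxic (21% O2) pretreatment, followed by further normoxic or hypoxic (1% O2) culture. Cells: 2×10^4 ME-180 per well, Opti-MEM + 1% FBS, 0.5% DMSO vehicle.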

Row | SMILES | IC50 [1] [nM] | 18 h Avg % max inhibition at top conc (HIF Rptr-24 hrs normoxia) (μM) (HRE-bla ME-180 cells [2]) | EC50 (HRE-bla ME-180 cells [2]) [µM] | Viability 1% FBS AVG (MTT V3-24 hr Normoxia) (μM) (HRE-bla ME-180 cells [3])
1 | CC[C@H](C)[C@H](NC(=O)[C@H](Cc1ccccc1)NC(C)=O)C(=O)N[C@@H](CC(=O)O)C(=O)N[C@@H](CCC(=O)O)C(=O)N[C@@H](CCC(N)=O)C(=O)N[C@H](C(=O)N[C@@H](CC(C)C)C(=O)N[C@@H](CCSC)C(=O)N[C@@]1(C)CCCC=CCCC[C@@](C)(C(=O)N[C@@H](CCSC)C(=O)N[C@@H](C)C(=O)N[C@@H](CC(C)C)C(N)=O)NC(=O)[C@H]([C@@H](C)CC)NC(=O)[C@H](C(C)C)NC(=O)[C@H](CC(C)C)NC1=O)C(C)C [SP-234] (Ac-FIDEQVLM[S5]LVI[S5]MAL-NH2; staple 9-13) | 400 to 700 | +++ (≤25 but <50: +++) | > 30 | ++++ (≥30: ++++)
2 | CCCC[C@H](NC(=O)[C@H](CC(C)C)NC(=O)[C@@H](NC(=O)[C@H](CCC(=O)O)NC(=O)[C@H](CCC(=O)O)NC(=O)[C@H](CC(=O)O)NC(=O)[C@@H](NC(=O)[C@H](CC(N)=O)NC(=O)[C@@H](NC(=O)[C@H](CCC(N)=O)NC(=O)[C@H](CC(=O)O)NC(=O)[C@]1(C)CCCC=CCCCCCC[C@@](C)(NC(=O)[C@H](CCC(N)=O)NC(=O)[C@H](CC(C)C)NC(=O)[C@H](CC(C)C)NC(C)=O)C(=O)N[C@@H](CCC(=O)O)C(=O)N[C@@H](CCC(=O)O)C(=O)N[C@@H](CC(C)C)C(=O)N[C@@H](CC(C)C)C(=O)N[C@@H](CCCNC(=N)N)C(=O)N[C@@H](C)C(=O)N1)C(C)C)[C@@H](C)CC)C(C)C)C(=O)N[C@@]1(C)CCCC=CCCC[C@@](C)(C(=O)N[C@@H](CCCC)C(=O)NCC(N)=O)NC(=O)[C@H]([C@@H](C)CC)NC(=O)[C@H](C(C)C)NC(=O)[C@H](CC(C)C)NC1=O [SP-341] (Ac-LLQ[R8]EELLRA[S5]DQVNIDEEVL[Nle][S5]LVI[S5][Nle]G-NH2; staple 4-11, 23-27) | 200 to 400 | + (<10: +) | > 30 | ++++ (≥30: ++++)
3 | CCCC[C@H](NC(=O)[C@H](CCC(=O)O)NC(=O)[C@@H](NC(=O)[C@@H](NC(=O)[C@H](CC(N)=O)NC(=O)[C@]1(C)CCCC=CCCC[C@](C)(NC(=O)[C@H](CCC(=O)O)NC(=O)[C@H](CC(=O)O)NC(=O)[C@@H](NC(=O)[C@H](Cc2ccccc2)NC(C)=O)[C@@H](C)CC)C(=O)N[C@@H](C(C)C)C(=O)N[C@@H](CC(C)C)C(=O)N[C@@H](CCCC)C(=O)N1)C(C)C)[C@@H](C)CC)C(=O)N[C@@H](C)C(=O)N[C@@H](CC(C)C)C(N)=O [SP-143] (Ac-FIDE[S5]VL[Nle][S5]NVIE[Nle]AL-NH2; staple 5-9) | 400 to 700 | ++++ (≥50: ++++) | 5 to 15 | ++ (≤5 but <15: ++)
4 | CCCC[C@H](NC(=O)[C@]1(C)CCCC=CCCC[C@](C)(NC(=O)[C@H](CCCC)NC(=O)[C@H](CC(C)C)NC(=O)[C@@H](NC(=O)[C@H](C)NC(=O)[C@H](CCC(=O)O)NC(=O)[C@H](CC(=O)O)NC(=O)[C@@H](NC(=O)[C@H](CC(N)=O)NC(=O)[C@@H](NC(=O)[C@]2(C)CCCC=CCCCCCC[C@@](C)(NC(=O)[C@H](CCC(=O)O)NC(=O)CNC(=O)[C@H](CCC(N)=O)NC(=O)[C@H](CC(C)C)NC(=O)[C@H](CC(C)C)NC(C)=O)C(=O)N[C@@H](CC(C)C)C(=O)N[C@@H](CC(C)C)C(=O)N[C@@H](CCCNC(=N)N)C(=O)N[C@@H](C)C(=O)N[C@@H](CC(C)C)C(=O)N[C@@H](CC(=O)O)C(=O)N2)C(C)C)[C@@H](C)CC)C(C)C)C(=O)N[C@@H](CC(C)C)C(=O)N[C@@H](C(C)C)C(=O)N[C@@H]([C@@H](C)CC)C(=O)N1)C(N)=O [SP-347] (Ac-LLQGE[R8]LLRALD[S5]VNIDEAVL[Nle][S5]LVI[S5][Nle]-NH2; staple 6-13, 23-27) | 400 to 700 | +++ (≤25 but <50: +++) | > 30 | ++++ (≥30: ++++)
5 | CCCC[C@H](NC(=O)[C@H](Cc1ccccc1)NC(=O)[C@@H](NC(=O)[C@H](C)NC(=O)[C@H](CCC(N)=O)NC(=O)[C@H](CC(=O)O)NC(=O)[C@@H](NC(=O)[C@H](Cc1ccccc1)NC(C)=O)[C@@H](C)CC)C(C)C)C(=O)N[C@@]1(C)CCCC=CCCC[C@@](C)(C(=O)N[C@@H](CCC(N)=O)C(=O)N[C@@H](C)C(=O)N[C@@H](CC(C)C)C(=O)N[C@@H](CC(C)C)C(N)=O)NC(=O)[C@H]([C@@H](C)CC)NC(=O)[C@H](C(C)C)NC(=O)[C@H](Cc2c[nH]cn2)NC1=O [SP-260] (Ac-FIDQAVF[Nle][S5]HVI[S5]QALL-NH2; staple 9-13) | > 700 | ++++ (≥50: ++++) | ≤ 5 | + (<5: +)
6 | CC[C@H](C)[C@H](NC(=O)[C@H](Cc1ccccc1)NC(C)=O)C(=O)N[C@@H](CO)C(=O)N[C@@H](CCC(=O)O)C(=O)N[C@@H](CCC(=O)O)C(=O)N[C@H](C(=O)N[C@@H](CC(C)C)C(=O)N[C@@H](CCSC)C(=O)N[C@@]1(C)CCCC=CCCC[C@@](C)(C(=O)N[C@@H](CCSC)C(=O)N[C@@H](C)C(=O)N[C@@H](CC(C)C)C(N)=O)NC(=O)[C@H]([C@@H](C)CC)NC(=O)[C@H](C(C)C)NC(=O)[C@H](CC(C)C)NC1=O)C(C)C [SP-230] (Ac-FISEEVLM[S5]LVI[S5]MAL-NH2; staple 9-13) | 400 to 700 | + (<10: +) | > 30 | ++++ (≥30: ++++)
7 | CCCC[C@H](NC(=O)[C@]1(C)CCCC=CCCC[C@](C)(NC(=O)[C@H](CCSC)NC(=O)[C@H](CC(C)C)NC(=O)[C@@H](NC(=O)[C@H](CCC(=O)O)NC(=O)[C@H](CCC(=O)O)NC(=O)[C@H](CC(=O)O)NC(=O)[C@@H](NC(=O)[C@H](Cc2ccccc2)NC(C)=O)[C@@H](C)CC)C(C)C)C(=O)N[C@@H](CC(C)C)C(=O)N[C@@H](C(C)C)C(=O)N[C@@H]([C@@H](C)CC)C(=O)N1)C(=O)N[C@@H](C)C(=O)N[C@@H](CC(C)C)C(N)=O [SP-225] (Ac-FIDEEVLM[S5]LVI[S5][Nle]AL-NH2; staple 9-13) | > 700 | +++ (≤25 but <50: +++) | > 30 | ++++ (≥30: ++++)
8 | CCCC[C@H](NC(=O)[C@]1(C)CCCC=CCCC[C@](C)(NC(=O)[C@H](CCCC)NC(=O)[C@H](CC(C)C)NC(=O)[C@@H](NC(=O)[C@H](CCC(=O)O)NC(=O)[C@H](CCC(=O)O)NC(=O)[C@H](CC(=O)O)NC(=O)[C@@H](NC(=O)[C@H](CC(N)=O)NC(=O)[C@@H](NC(=O)[C@]2(C)CCCC=CCCCCCC[C@@](C)(NC(=O)[C@H](CCC(=O)O)NC(C)=O)C(=O)N[C@@H](CC(C)C)C(=O)N[C@@H](CC(C)C)C(=O)N[C@@H](CCCNC(=N)N)C(=O)N[C@@H](C)C(=O)N[C@@H](CC(C)C)C(=O)N[C@@H](CC(=O)O)C(=O)N2)C(C)C)[C@@H](C)CC)C(C)C)C(=O)N[C@@H](CC(C)C)C(=O)N[C@@H](C(C)C)C(=O)N[C@@H]([C@@H](C)CC)C(=O)N1)C(N)=O [SP-351] (Ac-E[R8]LLRALD[S5]VNIDEEVL[Nle][S5]LVI[S5][Nle]-NH2; staple 2-9, 19-23) | 200 to 400 | ++ (≤10 but <25: ++) | > 30 | ++++ (≥30: ++++)
9 | CCCC[C@H](NC(=O)[C@H](CCC(=O)O)NC(=O)[C@]1(C)CCCC=CCCCCCC[C@@](C)(NC(=O)[C@H](CCC(=O)O)NC(=O)[C@H](CC(=O)O)NC(=O)[C@@H](NC(=O)[C@H](CC(N)=O)NC(=O)[C@@H](NC(=O)[C@H](CCC(N)=O)NC(=O)[C@H](CC(=O)O)NC(=O)[C@]2(C)CCCC=CCCC[C@](C)(NC(=O)[C@H](CCC(=O)O)NC(=O)[C@H](CCC(=O)O)NC(=O)CNC(=O)[C@H](CCC(N)=O)NC(=O)[C@H](CC(C)C)NC(=O)[C@H](CC(C)C)NC(C)=O)C(=O)N[C@@H](CC(C)C)C(=O)N[C@@H](CCCNC(=N)N)C(=O)N[C@@H](C)C(=O)N2)C(C)C)[C@@H](C)CC)C(=O)N[C@@H](C(C)C)C(=O)N[C@@H](CC(C)C)C(=O)N[C@@H](CCCC)C(=O)N[C@@H](CO)C(=O)N[C@@H](CC(C)C)C(=O)N[C@@H](C(C)C)C(=O)N1)C(=O)NCC(N)=O [SP-344] (Ac-LLQGEE[S5]LRA[S5]DQVNIDE[R8]VL[Nle]SLV[S5]E[Nle]G-NH2; staple 7-11, 19-26) | 400 to 700 | + (<10: +) | > 30 | ++++ (≥30: ++++)
